pIC50, pKd: −log10 of the molar value. Read-outs that look alike come from different tables or passages of the source.
Assays:
[1] = biological target: T1, USP2 (Homo sapiens, UniProt O75604); experiment: hUSP2 Ub-rhodamine 110 assay; assay type: biochemical; conditions: arithmetic means of multiple measurements; read-out: IC50 hUSP2 Ub-Rhod
T1 construct: His tag
T1 sequence (O75604 259-605): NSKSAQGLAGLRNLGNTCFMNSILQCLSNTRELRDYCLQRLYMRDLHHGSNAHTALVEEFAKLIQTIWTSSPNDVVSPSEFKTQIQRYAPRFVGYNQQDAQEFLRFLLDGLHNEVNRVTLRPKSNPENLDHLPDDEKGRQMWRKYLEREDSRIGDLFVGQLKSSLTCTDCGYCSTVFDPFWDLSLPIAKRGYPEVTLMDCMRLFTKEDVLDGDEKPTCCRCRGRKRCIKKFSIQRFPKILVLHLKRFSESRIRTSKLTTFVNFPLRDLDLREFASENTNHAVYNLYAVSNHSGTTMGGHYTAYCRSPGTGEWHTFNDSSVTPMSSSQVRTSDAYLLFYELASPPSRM
Description: The final assay volume was 6 μL.

[2] = biological target: T1, USP2; experiment: Thermal shift assay (TSA); assay type: binding; conditions: 100 μM compound
[3] = biological target: T2, USP7 (Homo sapiens, UniProt Q93009); experiment: Thermal shift assay (TSA); assay type: binding; conditions: 100 μM compound
T2 construct: purchased Ubiquigent (DUBprofiler service)

[4] = biological target: T3, USP21 (Homo sapiens, UniProt Q9UK80); experiment: SPR binding; conditions: equilibrium binding, 15 °C
T3 construct: made in house; host or cells: E. coli BL21(DE3)

[5] = log D measurement (HPLC); assay type: physicochemical; conditions: reverse-phase HPLC, pH 7.5, pH 7.5, HPLC method; read-out: logD7.5
Description: log D values at pH 7.5 were recorded using an indirect method for determining hydrophobicity constants by reverse-phase HPLC. A series of compounds with well-known log D values were used for calibration. Test compounds were injected into the same HPLC system. The lipophilicity of compounds was then assessed by comparison to the calibration curve.

[6] = system: panel of 10 individual USPs; experiment: SGC USP selectivity screen, whole panel; assay type: biochemical; conditions: 10 and 50 μM
[7] = biological target: T4, USP21 (Homo sapiens, UniProt Q9UK80)
T4 sequence (Q9UK80 1-565): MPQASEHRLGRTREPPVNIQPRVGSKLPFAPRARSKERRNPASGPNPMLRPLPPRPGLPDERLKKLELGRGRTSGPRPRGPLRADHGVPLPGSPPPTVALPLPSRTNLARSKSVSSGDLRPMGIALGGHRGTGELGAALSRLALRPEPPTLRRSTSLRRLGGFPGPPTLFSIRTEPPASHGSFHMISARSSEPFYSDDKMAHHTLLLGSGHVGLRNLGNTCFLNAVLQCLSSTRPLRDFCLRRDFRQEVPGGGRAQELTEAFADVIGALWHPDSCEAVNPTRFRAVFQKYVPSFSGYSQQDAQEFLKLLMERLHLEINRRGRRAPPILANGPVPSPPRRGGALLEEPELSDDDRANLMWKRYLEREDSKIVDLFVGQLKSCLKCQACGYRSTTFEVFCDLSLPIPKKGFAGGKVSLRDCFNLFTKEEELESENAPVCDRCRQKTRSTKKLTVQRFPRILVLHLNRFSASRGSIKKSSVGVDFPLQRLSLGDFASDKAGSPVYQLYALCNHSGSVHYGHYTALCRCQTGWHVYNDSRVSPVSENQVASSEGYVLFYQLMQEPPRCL

[8] = biological target: T4, USP21; remark: listed apart in the source
[9] = biological target: T4, USP21; experiment: Ubiquitin aminoluciferin (Ub-AML) assay; assay type: biochemical; design: […]; ZZ tag; made in house
Description: The final assay volume was 8 μL. […] The reaction was stopped with 2 μL of 200 μM PR619. Then, 2 μL of luciferin detection reagent (Promega V8920/1) was used to detect luciferin at a final concentration of 0.5-fold. For the luminescence detection, 1536-well plates (Greiner, white) were measured on the ViewLux at 120 s exposure time.

[10] = biological target: T4, USP21; experiment: Thermal shift assay (TSA); assay type: binding; design: purchased Ubiquigent (DUBprofiler service); conditions: 100 μM compound
Description: Experiments were carried out with the QuantStudio7 Flex Real-Time PCR system (Thermo Fisher Scientific) in a 384-well plate format with 5 μL of reaction volume. Melting curves were obtained at an USP21 protein concentration of 3.8 μM and 5xSYPRO Orange (Invitrogen) using a buffer containing 20 mM Tris, pH 7.5; 150 mM NaCl; 10% glycerol; and 1.0 mM TCEP. […] For binding experiments, compounds were added from 10 mM stock solution to a final concentration of 100 μM. As a control, 1% DMSO was used. Scans were measured from 25 to 95 °C at a scanning rate of 4 °C/min. All TSA data were analyzed using a Genedata Assay Analyzer.

[11] = biological target: T5, Cholinesterase, Acetyl, ACES (Homo sapiens, UniProt P22303); experiment: Eurofins Panlabs safety screen; assay type: biochemical
T5 construct: Eurofins Panlabs
T5 sequence (P22303 32-614): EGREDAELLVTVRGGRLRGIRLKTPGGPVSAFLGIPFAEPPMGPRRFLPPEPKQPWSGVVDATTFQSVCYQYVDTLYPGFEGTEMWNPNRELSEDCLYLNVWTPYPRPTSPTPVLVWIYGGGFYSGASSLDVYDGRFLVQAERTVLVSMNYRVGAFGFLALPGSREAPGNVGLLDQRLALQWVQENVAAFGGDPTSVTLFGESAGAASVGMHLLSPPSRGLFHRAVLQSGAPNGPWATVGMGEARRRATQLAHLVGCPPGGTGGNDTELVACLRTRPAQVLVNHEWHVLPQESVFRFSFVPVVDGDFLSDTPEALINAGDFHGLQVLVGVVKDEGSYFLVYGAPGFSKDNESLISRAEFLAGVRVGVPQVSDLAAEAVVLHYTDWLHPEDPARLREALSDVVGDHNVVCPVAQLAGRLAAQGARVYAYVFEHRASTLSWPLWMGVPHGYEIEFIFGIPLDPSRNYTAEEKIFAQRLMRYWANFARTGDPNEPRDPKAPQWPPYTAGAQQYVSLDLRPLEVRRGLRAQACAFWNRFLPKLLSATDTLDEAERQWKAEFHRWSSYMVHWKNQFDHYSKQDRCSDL

[12] = biological target: T6, Adrenergic α1A (Homo sapiens, UniProt P35348); experiment: Eurofins Panlabs safety screen; assay type: binding
T6 construct: Eurofins Panlabs

[13] = biological target: T7, Adrenergic α2A (Homo sapiens, UniProt P08913); experiment: Eurofins Panlabs safety screen; assay type: binding
T7 construct: Eurofins Panlabs

[14] = biological target: T8, Adrenergic α2B (Homo sapiens, UniProt P18089); experiment: Eurofins Panlabs safety screen; assay type: binding
T8 construct: Eurofins Panlabs

[15] = biological target: T9, Adrenergic α2C (Homo sapiens, UniProt P18825); experiment: Eurofins Panlabs safety screen; assay type: binding
T9 construct: Eurofins Panlabs
T9 sequence (P18825 whole entry): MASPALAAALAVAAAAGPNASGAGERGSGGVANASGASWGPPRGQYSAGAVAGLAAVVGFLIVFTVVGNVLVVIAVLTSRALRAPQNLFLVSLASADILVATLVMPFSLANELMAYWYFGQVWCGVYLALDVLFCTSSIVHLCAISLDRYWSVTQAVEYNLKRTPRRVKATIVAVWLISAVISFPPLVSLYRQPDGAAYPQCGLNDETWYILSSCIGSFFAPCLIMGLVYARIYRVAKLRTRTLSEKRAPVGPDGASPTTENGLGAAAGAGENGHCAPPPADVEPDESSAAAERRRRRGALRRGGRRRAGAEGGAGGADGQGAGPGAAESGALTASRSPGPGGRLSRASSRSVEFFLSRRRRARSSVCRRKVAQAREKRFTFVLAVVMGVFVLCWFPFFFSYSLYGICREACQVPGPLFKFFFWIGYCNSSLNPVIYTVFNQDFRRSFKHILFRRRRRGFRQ

[16] = biological target: Androgen (Testosterone) (Homo sapiens, UniProt P10275); experiment: Eurofins Panlabs safety screen; assay type: binding
[17] = biological target: Cannabinoid CB1 (Homo sapiens, UniProt P21554); experiment: Eurofins Panlabs safety screen; assay type: binding
Sequence of Cannabinoid CB1 (P21554 whole entry): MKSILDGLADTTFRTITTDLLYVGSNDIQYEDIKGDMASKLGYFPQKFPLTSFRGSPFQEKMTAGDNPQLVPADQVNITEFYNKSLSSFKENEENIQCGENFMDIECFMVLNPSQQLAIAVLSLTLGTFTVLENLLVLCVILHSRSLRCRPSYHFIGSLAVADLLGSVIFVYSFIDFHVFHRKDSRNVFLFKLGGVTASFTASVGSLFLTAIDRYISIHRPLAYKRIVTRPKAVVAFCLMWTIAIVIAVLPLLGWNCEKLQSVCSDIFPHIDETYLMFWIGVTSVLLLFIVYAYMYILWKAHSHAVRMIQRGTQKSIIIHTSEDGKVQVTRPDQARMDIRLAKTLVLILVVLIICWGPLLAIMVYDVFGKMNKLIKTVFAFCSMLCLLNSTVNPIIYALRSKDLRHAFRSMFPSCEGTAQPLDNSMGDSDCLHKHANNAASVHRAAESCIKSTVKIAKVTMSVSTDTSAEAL

[18] = biological target: Cannabinoid CB2 (Homo sapiens, UniProt P34972); experiment: Eurofins Panlabs safety screen; assay type: binding
Sequence of Cannabinoid CB2 (P34972 whole entry): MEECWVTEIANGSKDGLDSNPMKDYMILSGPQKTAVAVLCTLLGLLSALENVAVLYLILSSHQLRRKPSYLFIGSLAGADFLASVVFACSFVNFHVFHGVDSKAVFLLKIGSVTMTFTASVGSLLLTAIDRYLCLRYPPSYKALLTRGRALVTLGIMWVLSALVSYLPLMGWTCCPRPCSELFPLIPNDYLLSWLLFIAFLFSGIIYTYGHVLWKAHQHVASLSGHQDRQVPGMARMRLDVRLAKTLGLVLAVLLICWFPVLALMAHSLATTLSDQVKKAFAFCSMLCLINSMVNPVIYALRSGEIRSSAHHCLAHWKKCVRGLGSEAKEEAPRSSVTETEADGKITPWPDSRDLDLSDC

[19] = biological target: Dopamine D1 (Homo sapiens, UniProt P21728); experiment: Eurofins Panlabs safety screen; assay type: binding
Sequence of Dopamine D1 (P21728 whole entry): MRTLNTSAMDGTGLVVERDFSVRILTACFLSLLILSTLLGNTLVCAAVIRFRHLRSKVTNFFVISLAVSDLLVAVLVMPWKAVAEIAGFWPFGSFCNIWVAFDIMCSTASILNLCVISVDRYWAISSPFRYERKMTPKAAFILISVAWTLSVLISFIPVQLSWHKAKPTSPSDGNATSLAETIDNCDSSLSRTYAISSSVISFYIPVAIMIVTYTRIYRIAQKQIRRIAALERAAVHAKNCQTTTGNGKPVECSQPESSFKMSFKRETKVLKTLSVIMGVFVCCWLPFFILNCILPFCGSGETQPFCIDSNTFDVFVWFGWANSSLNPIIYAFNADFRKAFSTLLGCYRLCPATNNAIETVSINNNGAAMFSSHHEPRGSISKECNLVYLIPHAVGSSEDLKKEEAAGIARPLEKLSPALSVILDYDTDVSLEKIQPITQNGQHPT

[20] = biological target: Dopamine D2L (Homo sapiens, UniProt P14416); experiment: Eurofins Panlabs safety screen; assay type: binding
[21] = biological target: Dopamine D2S (Homo sapiens, UniProt P14416); experiment: Eurofins Panlabs safety screen; assay type: binding
[22] = biological target: Dopamine D3 (Homo sapiens, UniProt P35462); experiment: Eurofins Panlabs safety screen; assay type: binding
Sequence of Dopamine D3 (P35462 whole entry): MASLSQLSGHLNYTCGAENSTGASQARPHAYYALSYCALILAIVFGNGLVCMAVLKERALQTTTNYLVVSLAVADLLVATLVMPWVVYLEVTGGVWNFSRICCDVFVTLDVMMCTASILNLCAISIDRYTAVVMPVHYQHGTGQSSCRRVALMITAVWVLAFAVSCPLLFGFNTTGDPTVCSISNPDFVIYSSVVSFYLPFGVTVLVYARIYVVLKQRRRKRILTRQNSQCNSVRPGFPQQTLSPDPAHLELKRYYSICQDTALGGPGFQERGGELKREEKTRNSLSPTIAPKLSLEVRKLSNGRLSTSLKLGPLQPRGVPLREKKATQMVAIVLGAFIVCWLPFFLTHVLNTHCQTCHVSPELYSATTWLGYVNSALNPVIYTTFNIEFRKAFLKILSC

[23] = biological target: T10, Muscarinic M1 (Homo sapiens, UniProt P11229); experiment: Eurofins Panlabs safety screen; assay type: binding
T10 construct: Eurofins Panlabs

[24] = biological target: T11, Muscarinic M2 (Homo sapiens, UniProt P08172); experiment: Eurofins Panlabs safety screen; assay type: binding
T11 construct: Eurofins Panlabs

[25] = biological target: T12, Muscarinic M3 (Homo sapiens, UniProt P20309); experiment: Eurofins Panlabs safety screen; assay type: binding
T12 construct: Eurofins Panlabs
T12 sequence (P20309 whole entry): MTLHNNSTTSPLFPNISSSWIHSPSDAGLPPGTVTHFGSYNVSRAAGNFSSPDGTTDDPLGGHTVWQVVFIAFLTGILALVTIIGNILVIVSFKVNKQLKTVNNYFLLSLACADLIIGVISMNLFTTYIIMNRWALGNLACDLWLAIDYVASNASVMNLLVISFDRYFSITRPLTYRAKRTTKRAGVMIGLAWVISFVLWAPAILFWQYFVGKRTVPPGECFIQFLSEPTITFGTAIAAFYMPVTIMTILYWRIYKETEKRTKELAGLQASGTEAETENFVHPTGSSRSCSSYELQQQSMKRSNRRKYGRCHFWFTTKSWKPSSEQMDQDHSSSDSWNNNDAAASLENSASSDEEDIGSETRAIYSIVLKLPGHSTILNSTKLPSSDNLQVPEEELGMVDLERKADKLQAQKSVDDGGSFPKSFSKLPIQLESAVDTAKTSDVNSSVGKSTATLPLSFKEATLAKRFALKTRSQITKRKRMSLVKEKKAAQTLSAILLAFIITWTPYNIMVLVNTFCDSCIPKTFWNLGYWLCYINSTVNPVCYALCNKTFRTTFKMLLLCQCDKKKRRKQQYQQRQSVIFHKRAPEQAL

[26] = biological target: T13, Muscarinic M4 (Homo sapiens, UniProt P08173); experiment: Eurofins Panlabs safety screen; assay type: binding
T13 construct: Eurofins Panlabs
T13 sequence (P08173 whole entry): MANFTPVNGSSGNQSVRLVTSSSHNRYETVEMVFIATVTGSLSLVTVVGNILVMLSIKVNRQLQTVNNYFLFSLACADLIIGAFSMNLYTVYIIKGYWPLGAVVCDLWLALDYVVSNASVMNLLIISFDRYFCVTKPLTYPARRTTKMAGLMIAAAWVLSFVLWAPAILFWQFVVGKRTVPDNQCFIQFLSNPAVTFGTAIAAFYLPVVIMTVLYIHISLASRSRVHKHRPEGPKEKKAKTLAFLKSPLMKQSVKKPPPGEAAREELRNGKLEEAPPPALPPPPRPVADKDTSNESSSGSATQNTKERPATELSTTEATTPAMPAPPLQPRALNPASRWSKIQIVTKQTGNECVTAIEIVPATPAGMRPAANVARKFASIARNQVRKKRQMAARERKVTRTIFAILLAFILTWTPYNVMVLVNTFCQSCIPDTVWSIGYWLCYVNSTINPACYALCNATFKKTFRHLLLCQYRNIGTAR

[27] = biological target: T14, Nicotinic Acetylcholine α3β4 (Homo sapiens, UniProt P30926+P32297); experiment: Eurofins Panlabs safety screen; assay type: binding
T14 construct: Eurofins Panlabs

[28] = biological target: T15, Opiate δ1 (OP1, DOP) (Homo sapiens, UniProt P41143); experiment: Eurofins Panlabs safety screen; assay type: binding
T15 construct: Eurofins Panlabs
T15 sequence (P41143 whole entry): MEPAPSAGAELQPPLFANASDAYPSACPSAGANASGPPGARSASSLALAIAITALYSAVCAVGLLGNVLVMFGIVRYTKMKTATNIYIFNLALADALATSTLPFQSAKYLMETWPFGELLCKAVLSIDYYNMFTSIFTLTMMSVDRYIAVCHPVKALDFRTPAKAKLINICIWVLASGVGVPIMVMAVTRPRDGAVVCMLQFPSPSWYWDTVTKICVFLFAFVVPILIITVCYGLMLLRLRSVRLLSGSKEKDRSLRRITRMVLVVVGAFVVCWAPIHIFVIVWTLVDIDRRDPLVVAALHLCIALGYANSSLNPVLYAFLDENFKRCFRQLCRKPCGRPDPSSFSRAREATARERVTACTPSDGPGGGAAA

[29] = biological target: T16, Opiate μ (OP3, MOP) (Homo sapiens, UniProt P35372); experiment: Eurofins Panlabs safety screen; assay type: binding
T16 construct: Eurofins Panlabs

[30] = biological target: T17, Serotonin (5-Hydroxytryptamine) 5-HT1A (Homo sapiens, UniProt P08908); experiment: Eurofins Panlabs safety screen; assay type: binding
T17 construct: Eurofins Panlabs
T17 sequence (P08908 whole entry): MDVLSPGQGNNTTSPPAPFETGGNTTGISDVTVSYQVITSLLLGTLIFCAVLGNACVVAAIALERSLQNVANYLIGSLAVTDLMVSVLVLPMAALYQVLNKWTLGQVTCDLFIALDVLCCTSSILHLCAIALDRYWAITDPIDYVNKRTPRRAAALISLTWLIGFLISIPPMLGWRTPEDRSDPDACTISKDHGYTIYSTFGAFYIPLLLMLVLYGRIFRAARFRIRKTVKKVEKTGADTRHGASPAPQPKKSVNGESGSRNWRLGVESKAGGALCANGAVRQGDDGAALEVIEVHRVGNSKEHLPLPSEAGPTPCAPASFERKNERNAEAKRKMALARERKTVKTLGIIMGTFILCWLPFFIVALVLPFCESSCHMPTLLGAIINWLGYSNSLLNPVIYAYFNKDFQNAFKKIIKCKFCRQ

[31] = biological target: T18, Serotonin (5-Hydroxytryptamine) 5-HT2A (Homo sapiens, UniProt P28223); experiment: Eurofins Panlabs safety screen; assay type: binding
T18 construct: Eurofins Panlabs

[32] = biological target: T19, Serotonin (5-Hydroxytryptamine) 5-HT2B (Homo sapiens, UniProt P41595); experiment: Eurofins Panlabs safety screen; assay type: binding
T19 construct: Eurofins Panlabs

[33] = biological target: T20, Serotonin (5-Hydroxytryptamine) 5-HT2C (Homo sapiens, UniProt P28335); experiment: Eurofins Panlabs safety screen; assay type: binding
T20 construct: Eurofins Panlabs

[34] = biological target: T21, Fms(h) (Homo sapiens, UniProt P07333); experiment: Eurofins kinase panel; assay type: biochemical
T21 construct: purchased Eurofins (formerly Millipore/Upstate) KinaseProfiler

[35] = biological target: T22, PRP4(h) (Homo sapiens, UniProt Q13523); experiment: Eurofins kinase panel; assay type: biochemical
T22 construct: purchased Eurofins (formerly Millipore/Upstate) KinaseProfiler

[36] = biological target: T23, Opiate κ (OP2, KOP) (Homo sapiens, UniProt P41145); experiment: Eurofins Panlabs safety screen; assay type: binding
T23 construct: Eurofins Panlabs
T23 sequence (P41145 whole entry): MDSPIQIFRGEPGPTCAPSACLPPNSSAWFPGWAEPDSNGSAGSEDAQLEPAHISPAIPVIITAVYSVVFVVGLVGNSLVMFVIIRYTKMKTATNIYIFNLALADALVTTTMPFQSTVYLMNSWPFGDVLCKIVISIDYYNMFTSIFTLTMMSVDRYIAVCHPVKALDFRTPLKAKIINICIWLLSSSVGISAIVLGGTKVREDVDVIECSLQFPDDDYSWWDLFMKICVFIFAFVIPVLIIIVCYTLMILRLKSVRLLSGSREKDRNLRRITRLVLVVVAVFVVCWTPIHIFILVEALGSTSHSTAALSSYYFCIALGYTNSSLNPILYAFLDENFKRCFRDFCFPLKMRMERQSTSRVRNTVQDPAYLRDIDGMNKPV

| Compound | pIC50 [11] | inhibition at 10 µM [11] | inhibition at 0.1 µM ([11]; IC50 determination) | inhibition at 0.3 µM ([11]; IC50 determination) | inhibition at 1 µM ([11]; IC50 determination) | inhibition at 3 µM ([11]; IC50 determination) | inhibition at 10 µM ([11]; IC50 determination) | inhibition at 30 µM ([11]; IC50 determination) | inhibition at 10 µM [12] | inhibition at 10 µM [13] | inhibition at 10 µM [14] | inhibition at 10 µM [15] | inhibition at 10 µM [16] | inhibition at 10 µM [17] | inhibition at 10 µM [18] | inhibition at 10 µM [19] | inhibition at 10 µM [20] | inhibition at 10 µM [21] | inhibition at 10 µM [22] | inhibition at 10 µM [23] | further results |
| --- | --- | --- | --- | --- | --- | --- | --- | --- | --- | --- | --- | --- | --- | --- | --- | --- | --- | --- | --- | --- | --- |
| CC(NC(=O)C1CCCC1)C(=O)Nc1nnc(Cc2ccc([N+](=O)[O-])cc2)s1 (stereo not drawn) [Compound 1, CC(NC(=O)C1CCCC1)C(=O)Nc2nnc(Cc3ccc(cc3)[N+](=O)[O-])s2] | – | – | – | – | – | – | – | – | – | – | – | – | – | – | – | – | – | – | – | – | pIC50 [1]: < 4.60; ΔTm at 100 µM [2]: 0 °C; ΔTm at 100 µM [3]: 0 °C; pKd [4]: 5.10; chromatographic logD [5]: 2.3; inhibition of other tested DUB targets besides USP21 [6]: ≤ 50%; pIC50 [7]: 4.93; pIC50 [8]: < 4.65; pIC50 [9]: < 4.65; ΔTm at 100 µM [10]: 4.9 °C |
| CC(C)C[C@@H](NC(=O)C1(C(F)(F)F)CCCCC1)C(=O)Nc1nnc(Cc2ccc(C#N)cc2)s1 [Compound 21, N-[(1R)-1-[[5-[(4-Cyanophenyl)methyl]-1,3,4-thiadiazol-2-yl]carbamoyl]-3-methyl-butyl]-1-(trifluoromethyl)cyclohexanecarboxamide] | 5.12 | 72% | 15% | 16% | 11% | 4% | 74% | 74% | 1% | 14% | 4% | 6% | 4% | 8% | 1% | -3% | 8% | 24% | 9% | 18% | inhibition at 10 µM [24]: 2%; inhibition at 10 µM [25]: 7%; inhibition at 10 µM [26]: -4%; inhibition at 10 µM [27]: -3%; inhibition at 10 µM [28]: -5%; inhibition at 10 µM [29]: -1%; inhibition at 10 µM [30]: 2%; inhibition at 10 µM [31]: 4%; inhibition at 10 µM [32]: 3%; inhibition at 10 µM [33]: -5%; inhibition at 10 µM [34]: 3.41%; inhibition at 10 µM [35]: 8.18% |
| CC(C)C[C@H](NC(=O)C1(C(F)(F)F)CCCCC1)C(=O)Nc1nnc(Cc2ccc(C#N)cc2)s1 [Compound 22, CC(C)C[C@H](NC(=O)C1(CCCCC1)C(F)(F)F)C(=O)Nc2nnc(Cc3ccc(cc3)C#N)s2] | 5.16 | 75% | 18% | 4% | 19% | 8% | 76% | 78% | 13% | 13% | 1% | 12% | 7% | 3% | 4% | 2% | 17% | 25% | 2% | 36% | inhibition at 10 µM [24]: 24%; inhibition at 10 µM [25]: 4%; inhibition at 10 µM [26]: -8%; inhibition at 10 µM [27]: -1%; inhibition at 10 µM [28]: 5%; inhibition at 10 µM [36]: 12%; inhibition at 10 µM [29]: -3%; inhibition at 10 µM [30]: 5%; inhibition at 10 µM [31]: 2%; inhibition at 10 µM [32]: 2%; inhibition at 10 µM [33]: 14%; inhibition at 10 µM [34]: 0.62%; inhibition at 10 µM [35]: -7.38% |

Source: paper PMC10009755, “Discovery and Characterization of BAY-805, a Potent and Selective Inhibitor of Ubiquitin-Specific Protease USP21” (Journal of Medicinal Chemistry, 2023)
